Measured values taken from patent publication US6649365B1, “Indolamine derivatives for detecting peptidase activity in culture media” (Bio Merieux, priority 1998, dated 2003).

What was measured:
E. faecium [1] = experiment: Colony colour on gelled medium of Example 3; format: cell-based, Enterococcus faecium; set-up: key: —: Absence of coloration; Brown = Colony colour; details: 37° C.
Protocol: (§1) L-Pro-BIA, pyroglutamyl-BIA (Pyr-BIA) or Ala-Phe-Pro-BIA is added to this medium. These various media, which are distributed into Petri dishes, are inoculated with various microorganisms: E. coli, K. pneumoniae, C. freundii, p. aeruginosa, S. agalactiae, E. faecium, S. pyogenes, S. epidermidis, C. albicans and C. tropicalis. The dishes are incubated at 37° C. for 48 hours, and the colonies formed are examined visually after incubation for 24 and 48 hours. The colour was noted.

E. coli [2] = experiment: Colony colour on gelled medium of Example 3; format: cell-based, Escherichia coli; set-up: key: —: Absence of coloration; Brown = Colony colour; details: 37° C.
Protocol: as §1

C. freundii [3] = experiment: Colony colour on gelled medium of Example 3; format: cell-based, Citrobacter freundii; set-up: key: —: Absence of coloration; Brown = Colony colour; details: 37° C.
Protocol: as §1

P. aeruginosa [4] = experiment: Colony colour on gelled medium of Example 3; format: cell-based, Pseudomonas aeruginosa; set-up: key: —: Absence of coloration; Brown = Colony colour; details: 37° C.
Protocol: as §1

K. pneumoniae [5] = experiment: Colony colour on gelled medium of Example 3; format: cell-based, Klebsiella Pneumoniae; set-up: key: —: Absence of coloration; Brown = Colony colour; details: 37° C.
Protocol: as §1

S. pyogenes [6] = experiment: Colony colour on gelled medium of Example 3; format: cell-based, Streptococcus pyogenes; set-up: key: —: Absence of coloration; Brown = Colony colour; details: 37° C.
Protocol: as §1

S. agalactiae [7] = experiment: Colony colour on gelled medium of Example 3; format: cell-based, Streptococcus agalactiae; set-up: key: —: Absence of coloration; Brown = Colony colour; details: 37° C.
Protocol: as §1

Escherichia coli = experiment: Colony colour or fluorescence on gelled medium of Example 1; format: cell-based; details: medium of Example 1, substrate 200 mg/L, 24 or 48 hours
Pseudomonas aeruginosa = experiment: as above; format: cell-based; details: medium of Example 1, substrate 200 mg/l, 37° C., 24 or 48 hours, ambient light and UV 365 nm
Protocol: (§2) L-Pro-BIA, or 7-L-prolylamino-4-methylcoumarin (L-Pro-AMC) is added to this medium at a concentration of 200 mg/l. The various media obtained, which are distributed in Petri dishes, are inoculated with microorganisms. The dishes were incubated at 37° C. for 48 hours. The colonies formed were examined visually in ambient light and under a UV lamp (wavelength=365 nm) after incubation for 24 and 48 hours. The colour or the presence of fluorescence was noted. The microorganisms studied were: Pseudomonas aeruginosa and Candida albicans.

Streptococcus pyogenes = experiment: as above; format: cell-based; details: medium of Example 1, substrate 200 mg/L, 24 or 48 hours
Streptococcus agalactiae = experiment: as above; format: cell-based; details: medium of Example 1, substrate 200 mg/L, 24 or 48 hours
[8] = tested on: Staphylococcus epidermidis; experiment: as above; format: cell-based; details: medium of Example 1, substrate 200 mg/L, 24 or 48 hours
Citrobacter freundii = experiment: as above; format: cell-based; details: medium of Example 1, substrate 200 mg/L, 24 or 48 hours
Klebsiella Pneumoniae = experiment: as above; format: cell-based; details: medium of Example 1, substrate 200 mg/L, 24 or 48 hours
Enterococcus faecium = experiment: as above; format: cell-based; details: medium of Example 1, substrate 200 mg/L, 24 or 48 hours
S. pyogenes [9] = experiment: Coloration or fluorescence in phosphate buffer, microtitration plates (Example 2); format: cell-based, Streptococcus pyogenes; details: 0.1 M phosphate buffer pH 7.3, 24 to 48 hours
[10] = tested on: genera Escherichia, Klebsiella, Citrobacter, Pseudomonas, Enterococcus, Staphylococcus and Streptococcus; experiment: Preliminary tests in the medium described in Example 1; format: cell-based; details: for leucine-aminopeptidase or proline-aminopeptidase activity demonstrated: substrate added to the medium of Example 1; for revelation of a peptidase activity: medium of Example 1 with addition of the reagents proposed by Lojda and Havrankova (tetrazolium salt and phenazine methosulphate)
Protocol: In the course of the studies which lead to the present invention, an investigation was, carried out as to whether it was possible to use this enzymatic substrate for detecting microorganisms cultured, in particular, on gelled media. During preliminary tests, L-Leu-BIA or L-Pro-BIA was added to a medium currently used to search for osidases, which is described in Example 1 below.
Similarly, in this medium, with osidase substrates (5-bromo-4-chloro-3-indolyl-β-D-galactoside and 6-chloro-3-indolyl-β-D-glucuronide), the β-galactos-idase and β-glucuronidase activities of the microorganisms can be detected.

C. freundii [11] = experiment: Coloration or fluorescence in phosphate buffer, microtitration plates (Example 2); format: cell-based, Citrobacter freundii; details: 0.1 M phosphate buffer pH 7.3, 24 to 48 hours
E. coli [12] = experiment: as above; format: cell-based, Escherichia coli; details: 0.1 M phosphate buffer pH 7.3, 24 to 48 hours
K. pneumoniae [13] = experiment: as above; format: cell-based, Klebsiella Pneumoniae; details: 0.1 M phosphate buffer pH 7.3, 24 to 48 hours
P. aeruginosa [14] = experiment: as above; format: cell-based, Pseudomonas aeruginosa; details: 0.1 M phosphate buffer pH 7.3, substrate 400 mg/L, 37° C., 24 to 48 hours
Protocol: (§3) L-Pro-BIA or L-Pro-AMC is added, at the concentration of 400 mg/L, to a 0.1 M phosphate buffer, pH 7.3, at 25° C. The medium obtained is distributed into the wells of microtitration plates which are inoculated with suspensions of P. aeruginosa or of C. albicans. The plates are incubated for 24 hours at 37° C. The wells are examined visually in ambient light and under a UV lamp, after incubation for 24 to 48 hours.

S. agalactiae [15] = experiment: as above; format: cell-based, Streptococcus agalactiae; details: 0.1 M phosphate buffer pH 7.3, 24 to 48 hours
E. faecium [16] = experiment: as above; format: cell-based, Enterococcus faecium; details: 0.1 M phosphate buffer pH 7.3, 24 to 48 hours
Candida albicans = experiment: Colony colour or fluorescence on gelled medium of Example 1; format: cell-based; details: medium of Example 1, substrate 200 mg/l, 37° C., 24 or 48 hours, ambient light and UV 365 nm
Protocol: as §2

C. albicans [17] = experiment: Coloration or fluorescence in phosphate buffer, microtitration plates (Example 2); format: cell-based, Candida albicans; details: 0.1 M phosphate buffer pH 7.3, substrate 400 mg/L, 37° C., 24 to 48 hours
Protocol: as §3

C. tropicalis = experiment: Colony colour on gelled medium of Example 3; format: cell-based; set-up: key: —: Absence of coloration; Brown = Colony colour; details: 37° C.
Protocol: as §1

C. albicans [18] = experiment: Colony colour on gelled medium of Example 3; format: cell-based, Candida albicans; set-up: key: —: Absence of coloration; Brown = Colony colour; details: 37° C.
Protocol: as §1

S. epidermidis = experiment: Colony colour on gelled medium of Example 3; format: cell-based, Staphylococcus epidermidis; set-up: key: —: Absence of coloration; Brown = Colony colour; details: 37° C.
Protocol: as §1

`CC(N)C(=O)NC(Cc1ccccc1)C(=O)N1CCCC1C(=O)Nc1c[nH]c2ccc(Br)cc12` (stereo not drawn) [Ala-Phe-Pro-BIA] was tested, and the Colony colour (E. faecium [1]; 24 H) was “—”, the Colony colour (E. faecium [1]; 48 H) was “—” and the Colony colour (E. coli [2]; 24 H) was “Brown^2”. For the same compound, the Colony colour (E. coli [2]; 48 H) was “Brown”, the Colony colour (C. freundii [3]; 24 H) was “Brown” and the Colony colour (C. freundii [3]; 48 H) was “Brown”. For the same compound, the Colony colour (P. aeruginosa [4]; 24 H) was “Brown”, the Colony colour (P. aeruginosa [4]; 48 H) was “Brown” and the Colony colour (K. pneumoniae [5]; 24 H) was “Brown”. For the same compound, the Colony colour (K. pneumoniae [5]; 48 H) was “Brown”, the Colony colour (S. pyogenes [6]; 24 H) was “Brown” and the Colony colour (S. pyogenes [6]; 48 H) was “Brown”. For the same compound, the Colony colour (S. agalactiae [7]; 24 H) was “Brown” and the Colony colour (S. agalactiae [7]; 48 H) was “Brown”.

`C[C@H](N)C(=O)Nc1c[nH]c2ccc(Br)cc12` [L-Ala-BIA] was tested, and the “peptidase activity revealed by colour or fluorescence of the colonies” value (from here on “peptidase activity revealed … of the colonies”) (Escherichia coli) was “no coloration”, the “peptidase activity revealed … of the colonies” value (Pseudomonas aeruginosa) was “no coloration” and the “peptidase activity revealed … of the colonies” value (Streptococcus pyogenes) was “no coloration”. For the same compound, the “peptidase activity revealed … of the colonies” value (Streptococcus agalactiae) was “no coloration”, the “peptidase activity revealed … of the colonies” value [8] was “no coloration” and the “peptidase activity revealed … of the colonies” value (Citrobacter freundii) was “no coloration”. The “peptidase activity revealed … of the colonies” value (Klebsiella Pneumoniae) was “no coloration” and the “peptidase activity revealed … of the colonies” value (Enterococcus faecium) was “no coloration”.

`Cc1cc(=O)oc2cc(NC(=O)[C@@H](N)CC(C)C)ccc12` [L-Leu-AMC, 7-L-leucylamino-4-methylcoumarin] was tested, and the “peptidase activity revealed by coloration or fluorescence of the wells” value (“peptidase activity revealed … of the wells” for short) (S. pyogenes [9]) was “detected, by emission of fluorescence”, the “leucine-aminopeptidase or proline-aminopeptidase activity demonstrated” value [10] was “a fluorescence” and the “peptidase activity revealed … of the wells” value (C. freundii [11]) was “detected, by emission of fluorescence”. For the same compound, the “peptidase activity revealed … of the wells” value (E. coli [12]) was “detected, by emission of fluorescence”, the “peptidase activity revealed … of the wells” value (K. pneumoniae [13]) was “detected, by emission of fluorescence” and the “peptidase activity revealed … of the wells” value (P. aeruginosa [14]) was “detected, by emission of fluorescence”. The “peptidase activity revealed … of the wells” value (S. agalactiae [15]) was “detected, by emission of fluorescence” and the “peptidase activity revealed … of the wells” value (E. faecium [16]) was “detected, by emission of fluorescence”.

For `CC(C)C[C@H](N)C(=O)Nc1c[nH]c2ccc(Br)cc12` [L-Leu-BIA, 3-L-leucylamino-5-bromoindole], the “peptidase activity revealed … of the colonies” value (Escherichia coli) was “no coloration”, the “peptidase activity revealed … of the wells” value (S. pyogenes [9]) was “did not make it possible to detect” and the “revelation of a peptidase activity” value [10] was “without allowing the revelation of a peptidase activity”. The “leucine-aminopeptidase or proline-aminopeptidase activity demonstrated” value [10] was “not possible to demonstrate”, the “peptidase activity revealed … of the wells” value (C. freundii [11]) was “did not make it possible to detect” and the “peptidase activity revealed … of the wells” value (E. coli [12]) was “did not make it possible to detect”. For the same compound, the “peptidase activity revealed … of the wells” value (K. pneumoniae [13]) was “did not make it possible to detect”, the “peptidase activity revealed … of the colonies” value (Pseudomonas aeruginosa) was “no coloration” and the “peptidase activity revealed … of the wells” value (P. aeruginosa [14]) was “did not make it possible to detect”. The “peptidase activity revealed … of the colonies” value (Streptococcus pyogenes) was “no coloration”, the “peptidase activity revealed … of the colonies” value (Streptococcus agalactiae) was “no coloration” and the “peptidase activity revealed … of the wells” value (S. agalactiae [15]) was “did not make it possible to detect”. The “peptidase activity revealed … of the colonies” value [8] was “no coloration”, the “peptidase activity revealed … of the colonies” value (Citrobacter freundii) was “no coloration” and the “peptidase activity revealed … of the wells” value (E. faecium [16]) was “did not make it possible to detect”. The “peptidase activity revealed … of the colonies” value (Klebsiella Pneumoniae) was “no coloration” and the “peptidase activity revealed … of the colonies” value (Enterococcus faecium) was “no coloration”.

For `Cc1cc(=O)oc2cc(NC(=O)[C@@H]3CCCN3)ccc12` [L-Pro-AMC, 7-L-prolylamino-4-methylcoumarin], the “leucine-aminopeptidase or proline-aminopeptidase activity demonstrated” value [10] was “a fluorescence”, the “peptidase activity revealed … of the colonies” value (Candida albicans) was “emission of a fluorescence” and the “peptidase activity revealed … of the colonies” value (Pseudomonas aeruginosa) was “emission of a fluorescence”. For the same compound, the “peptidase activity revealed … of the wells” value (P. aeruginosa [14]) was “possible to reveal an L-Pro-aminopeptidase activity” and the “peptidase activity revealed … of the wells” value (C. albicans [17]) was “possible to reveal an L-Pro-aminopeptidase activity”.

With `O=C(Nc1c[nH]c2ccc(Br)cc12)[C@@H]1CCCN1` [L-Pro-BIA] the Colony colour (E. coli [2]; 24 H) was “—^1”, the Colony colour (E. coli [2]; 48 H) was “—” and the Colony colour (C. tropicalis; 24 H) was “—”. The Colony colour (C. tropicalis; 48 H) was “—”, the Colony colour (C. albicans [18]; 24 H) was “Brown” and the Colony colour (C. albicans [18]; 48 H) was “Brown”. The “revelation of a peptidase activity” value [10] was “without allowing the revelation of a peptidase activity”, the “leucine-aminopeptidase or proline-aminopeptidase activity demonstrated” value [10] was “not possible to demonstrate” and the Colony colour (C. freundii [3]; 24 H) was “—”. For the same compound, the Colony colour (C. freundii [3]; 48 H) was “—”, the Colony colour (P. aeruginosa [4]; 24 H) was “Brown” and the Colony colour (P. aeruginosa [4]; 48 H) was “Brown”. The “peptidase activity revealed … of the colonies” value (Candida albicans) was “no coloration”, the “peptidase activity revealed … of the colonies” value (Pseudomonas aeruginosa) was “no coloration” and the “peptidase activity revealed … of the wells” value (P. aeruginosa [14]) was “No coloration”. For the same compound, the “peptidase activity revealed … of the wells” value (C. albicans [17]) was “No coloration”, the Colony colour (K. pneumoniae [5]; 24 H) was “—” and the Colony colour (K. pneumoniae [5]; 48 H) was “—”.

With `O=C1CCC(C(=O)Nc2c[nH]c3ccc(Br)cc23)N1` (centres unmarked) [Pyr-BIA, pyroglutamyl-BIA] the Colony colour (S. epidermidis; 24 H) was “—”, the Colony colour (S. epidermidis; 48 H) was “—” and the Colony colour (E. faecium [1]; 24 H) was “Brown”. The Colony colour (E. faecium [1]; 48 H) was “Brown”, the Colony colour (E. coli [2]; 24 H) was “—” and the Colony colour (E. coli [2]; 48 H) was “—”. For the same compound, the Colony colour (C. freundii [3]; 24 H) was “—”, the Colony colour (C. freundii [3]; 48 H) was “Brown” and the Colony colour (P. aeruginosa [4]; 24 H) was “Brown”. For the same compound, the Colony colour (P. aeruginosa [4]; 48 H) was “Brown”, the Colony colour (K. pneumoniae [5]; 24 H) was “—” and the Colony colour (K. pneumoniae [5]; 48 H) was “Brown”. The Colony colour (S. pyogenes [6]; 24 H) was “Brown”, the Colony colour (S. pyogenes [6]; 48 H) was “Brown” and the Colony colour (S. agalactiae [7]; 24 H) was “—”. For the same compound, the Colony colour (S. agalactiae [7]; 48 H) was “—”.
